Tests used:
P. larvae spores [1] = assay: Inhibition of P. larvae spore germination, IC50 titration of indole analogs (Example 2); format: cell-based, Paenibacillus larvae subsp. pulvifaciens strain ATCC 49843; conditions: Paenibacillus larvae; Table 2; saturating uric acid/L-tyrosine concentrations; read-out: IC50
Procedure: After a 15 minute incubation, the spores were treated with 3 mM L-tyrosine-3 mM uric acid. The germination rate was set to 100% for P. larvae spores germinated in the absence of inhibitor. Germination rates for other conditions were divided by the uninhibited maximum germination rate obtained with 3 mM L-tyrosine-3 mM uric acid, and are reported as percent germination. Percent germination was plotted against the inhibitor concentrations.

P. larvae spores [2] = assay: Growth from P. larvae spores in medium containing 5-chloroindole; format: cell-based, Paenibacillus larvae
Procedure: FIGS. 7A-7D are graphs plotting the inhibition activity of 5-chloroindole on P. larvae spores. P. larvae spores were grown in medium containing different concentrations of 5-chloroindole. Growth was monitored over a 24 hour period; plots are shown for 6 hours (FIG. 7A), 12 hours (FIG. 7B), 18 hours (FIG. 7C), and 24 hours (FIG. 7D). Asterisks denote significant differences from the growth of medium control (Analysis of Variance, Log-rank test, p<0.05).
P. larvae spores were grown in medium containing different concentrations of DMSO, complex medium (MYPGP), or 0.5 to 2 mM 5-chloroindole, and cellular growth was monitored over a 24 hour period.

P. larvae cells = assay: Growth of P. larvae cells in medium containing 5-chloroindole; format: cell-based, Paenibacillus larvae; conditions: 1, 1.5 and 2 mM; all time points (6, 12, 18, 24 hours); p<0.05
Procedure: FIGS. 6A-6D are graphs plotting the inhibition activity of 5-chloroindole on P. larvae cells. P. larvae cells were grown in medium containing different concentrations of 5-chloroindole, and cellular growth was monitored over a 24 hour period. Graphs are shown for 6 hours (FIG. 6A), 12 hours (FIG. 6B), 18 hours (FIG. 6C), and 24 hours (FIG. 6D). Asterisks denote significant differences from the growth of medium control (Analysis of Variance, Log-rank test, p<0.05).
5-Chloroindole was then tested in vitro, using P. larvae cells or spores. P. larvae cells were grown in medium containing different concentrations of DMSO, complex medium (MYPGP), or 0.5 to 2 mM 5-chloroindole, and cellular growth was monitored over a 24 hour period.

[3] = tested on: honey bee larvae contacted with P. larvae spores; assay: Survival of honey bee larvae fed diet with indole analogs and P. larvae spores; format: in vivo
Procedure: First instar honey bee larvae were obtained from two colonies headed by naturally mated queens (Honey Bee Genetics, Vacaville Calif.). Queens were trapped on empty frames within a cage constructed with queen excluder. Worker bees can fit through the excluder but the queen cannot exit the cage. The frame was placed within the brood chamber to stimulate egg laying by the queen overnight. Eggs were incubated in the hive for 4 days to allow newly hatched larvae to be fed by nurse bees. First instar honey bee larvae were brought into the laboratory and stored in a 35° C. 85% relative humidity chamber before grafting.
Sterile six well plates with a well volume of 17.0 ml were filled with 2.5 ml of pre-warmed artificial worker jelly. Honey bee larvae were transferred into each well using the thin tongue made of flexible plastic from a Chinese grafting tool. The plastic grafting tool was decontaminated with 70% ethanol throughout usage. Grafting was performed in the sterile environment of a honey bee laboratory, and honey bee larvae were then transferred to a bacterial spore laboratory for control and spore exposure treatments.
Artificial worker jelly was prepared using a lyophilized royal jelly, D-glucose, D-fructose, yeast extract, and autoclaved double distilled water. Ingredients minus lyophilized royal jelly were dissolved in autoclaved double distilled water. Lyophilized royal jelly was added to this sugar-yeast extract solution and mixed thoroughly with a vortex mixer. Artificial diet was prepared an hour prior to use for larval rearing. To reduce the development of worker-queen hybrids because of nutrition, the composition and amounts of artificial worker jelly were controlled in every larval stage.
Honey bee larvae were incubated in an air tight plastic container placed inside an incubator. The desired relative humidity (95%) and temperature (35° C.) was verified with an iButton data logger (Maxim Integrated; San Jose, Calif.). The appropriate relative humidity was obtained by placing a solution of 20% glycerol by weight. The plastic containers were was decontaminated throughout usage with detergent, 70% ethanol, and treated with an ultraviolet lamp overnight.
Feeding of diets was performed daily in different amounts according to Table 2. The amount of diet consumed by larvae was assumed based on published literature. A micropipette was used to place a food drop next to the mouth of the larvae. Drowning was avoided by maintaining the appropriate humidity and water content of diet. Forty first and second instar larvae were placed into one well of a six well plate. Third instar larvae were transferred individually to 48 well plates filled with fresh food.
Larval survival was determined daily by observing signs of respiration, disease symptoms, and other abnormalities with a stereo microscope. The number of dead larvae was recorded, and surviving larvae were fed fresh food. The start of pupation was indicated by the appearance of uric acid crystals and light yellow excretions in the remaining food.
The larval survival data was analyzed using the LogRank test in SigmaPlot.

Clc1ccc2[nH]ccc2c1 [5-chloroindole]
IC50 (P. larvae spores [1]): 30 ± 10 µM
effect on growth from P. larvae spores vs medium control, 6 hours (P. larvae spores [2]; 0.5 to 2 mM, 6 hours): no significant effect
effect on growth from P. larvae spores vs medium control, 18 and 24 hours (P. larvae spores [2]; all concentrations (0.5 to 2 mM), 18 and 24 hours, p<0.05): significantly inhibited
inhibition of P. larvae cell growth vs medium control (P. larvae cells): significantly inhibited
concentration dependence of increase in larval survival ([3]; 0.125 mM to 1 mM in larval diet (wj) plus P. larvae spores, p<0.001): directly correlated to its concentration
ranking of effect on larval survival among analogs ([3]; 0.5 mM in larval diet (wj) plus P. larvae spores): greatest effect
survival of honey bee larvae vs P. larvae spores alone ([3]; 0.5 mM in larval diet (wj) plus P. larvae spores, 7-day development, p<0.002): increased survival

— patent US9668479B2, “Modulating germination of Paenibacillus larvae” (THE BOARD OF REGENTS OF THE NEVADA SYSTEM OF HIGHER …, priority 2013, dated 2017)
